In brackets after ≈: the same amount, converted by molar mass. Where two headings read alike, the source gives them in different places.
Test: Test on the solubility of glibenclamide in additive/cyclodextrin solutions
Assay type: physicochemical
Conditions: for solubility at 1 h: 25 °C, thermodynamic from solid; for Solubility: 25° C.
Procedure: An excess amount of glibenclamide powder was added into an aqueous solution comprising different proportion of additive (e.g., meglumine, sodium carbonate, sodium hydrogen carbonate or sodium hydroxide) and cyclodextrin (hydroxypropyl-β-cyclodextrin) to form a suspension. The suspension was placed in a constant shaking incubator, and shaken for 1 h at 25±1° C. The shaken suspension was filtered with a 0.45 μm hydrophilic filter membrane, with the primary filtrate being disposed and the subsequent filtrate being collected. The subsequent filtrate was diluted to appropriate times with a PBS buffer having a pH of 7.4, the absorbance of the diluted subsequent filtrate was determined at a wavelength of 225 nm, and the solubility of glibenclamide in the diluted subsequent filtrate was calculated according to the absorbance. Corresponding solubility curves were plotted with the solubility of glibenclamide as the vertical axis and the concentration of cyclodextrin and/or meglumine as the horizontal axis.

SMILES: COc1ccc(Cl)cc1C(=O)NCCc1ccc(S(=O)(=O)NC(=O)NC2CCCCC2)cc1 [glibenclamide, 5-chloro-N-(4-[N-(cyclohexylcarbamoyl)aminosulfonyl]phenethyl)-2-methoxybenzamide]
- solubility at 1 h (aqueous buffer, meglumine 0.1% (w/v), cyclodextrin 0% (w/v), read-out: Solubility): 960 µg/mL (≈ 1.94 mM)
- solubility at 1 h (aqueous buffer, meglumine 0.5% (w/v), cyclodextrin 0% (w/v), read-out: Solubility): 1760 µg/mL (≈ 3.56 mM)
- solubility at 1 h (aqueous buffer, meglumine 1% (w/v), cyclodextrin 0% (w/v), read-out: Solubility): 4930 µg/mL (≈ 9.98 mM)
- solubility at 1 h (aqueous buffer, meglumine 2.5% (w/v), cyclodextrin 0% (w/v), read-out: Solubility): 8030 µg/mL (≈ 16.3 mM)
- solubility at 1 h (aqueous with cosolvent or surfactant or cyclodextrin, cyclodextrin only, from 0.5% (w/v) to 40% (w/v), read-out: water solubility of glibenclamide): 1.3 to 120 µg/mL (≈ 0.00263 to 0.243 mM)
- solubility at 1 h (aqueous with cosolvent or surfactant or cyclodextrin, meglumine 0% (w/v), 2-hydroxypropyl-β-cyclodextrin 0.5% (w/v), read-out: Solubility): 1.3 µg/mL (≈ 0.00263 mM)
- solubility at 1 h (aqueous with cosolvent or surfactant or cyclodextrin, meglumine 0% (w/v), 2-hydroxypropyl-β-cyclodextrin 1.25% (w/v), read-out: Solubility): 3.1 µg/mL (≈ 0.00628 mM)
- solubility at 1 h (aqueous with cosolvent or surfactant or cyclodextrin, meglumine 0% (w/v), 2-hydroxypropyl-β-cyclodextrin 2.5% (w/v), read-out: Solubility): 5.8 µg/mL (≈ 0.0117 mM)
- solubility at 1 h (aqueous with cosolvent or surfactant or cyclodextrin, meglumine 0% (w/v), 2-hydroxypropyl-β-cyclodextrin 5% (w/v), read-out: Solubility): 14 µg/mL (≈ 0.0283 mM)
- solubility at 1 h (aqueous with cosolvent or surfactant or cyclodextrin, meglumine 0% (w/v), 2-hydroxypropyl-β-cyclodextrin 10% (w/v), read-out: Solubility): 32 µg/mL (≈ 0.0648 mM)
- solubility at 1 h (aqueous with cosolvent or surfactant or cyclodextrin, meglumine 0.1% (w/v), 2-hydroxypropyl-β-cyclodextrin 0.5% (w/v), read-out: Solubility): 1250 µg/mL (≈ 2.53 mM)
- solubility at 1 h (aqueous with cosolvent or surfactant or cyclodextrin, meglumine 0.1% (w/v), 2-hydroxypropyl-β-cyclodextrin 1.25% (w/v), read-out: Solubility): 1420 µg/mL (≈ 2.87 mM)
- solubility at 1 h (aqueous with cosolvent or surfactant or cyclodextrin, meglumine 0.1% (w/v), 2-hydroxypropyl-β-cyclodextrin 2.5% (w/v), read-out: Solubility): 1660 µg/mL (≈ 3.36 mM)
- solubility at 1 h (aqueous with cosolvent or surfactant or cyclodextrin, meglumine 0.1% (w/v), 2-hydroxypropyl-β-cyclodextrin 5% (w/v), read-out: Solubility): 2170 µg/mL (≈ 4.39 mM)
- solubility at 1 h (aqueous with cosolvent or surfactant or cyclodextrin, meglumine 0.1% (w/v), 2-hydroxypropyl-β-cyclodextrin 10% (w/v), read-out: Solubility): 2170 µg/mL (≈ 4.39 mM)
- solubility at 1 h (aqueous with cosolvent or surfactant or cyclodextrin, meglumine 0.1% (w/v), 2-hydroxypropyl-β-cyclodextrin 20% (w/v), read-out: Solubility): 2230 µg/mL (≈ 4.51 mM)
- solubility at 1 h (aqueous with cosolvent or surfactant or cyclodextrin, meglumine 0.1% (w/v), 2-hydroxypropyl-β-cyclodextrin 30% (w/v), read-out: Solubility): 2210 µg/mL (≈ 4.47 mM)
- solubility at 1 h (aqueous with cosolvent or surfactant or cyclodextrin, meglumine 0.1% (w/v), 2-hydroxypropyl-β-cyclodextrin 40% (w/v), read-out: Solubility): 2280 µg/mL (≈ 4.62 mM)
- solubility at 1 h (aqueous with cosolvent or surfactant or cyclodextrin, meglumine 0.1% (w/v), cyclodextrin from 0.5% (w/v) to 5% (w/v), read-out: water solubility of glibenclamide): 1250 to 2170 µg/mL (≈ 2.53 to 4.39 mM)
- solubility at 1 h (aqueous with cosolvent or surfactant or cyclodextrin, meglumine 0.1% (w/v), cyclodextrin from 5% (w/v) to 40% (w/v), read-out: solubility of glibenclamide): ~2170 µg/mL (≈ 4.39 mM)
- solubility at 1 h (aqueous with cosolvent or surfactant or cyclodextrin, meglumine 5% (w/v), 2-hydroxypropyl-β-cyclodextrin 5% (w/v), read-out: Solubility): 25200 µg/mL (≈ 51.1 mM)
- solubility at 1 h (aqueous with cosolvent or surfactant or cyclodextrin, meglumine 5% (w/v), 2-hydroxypropyl-β-cyclodextrin 10% (w/v), read-out: Solubility): 34400 µg/mL (≈ 69.7 mM)
- solubility at 1 h (aqueous with cosolvent or surfactant or cyclodextrin, meglumine 5% (w/v), 2-hydroxypropyl-β-cyclodextrin 20% (w/v), read-out: Solubility): 42200 µg/mL (≈ 85.5 mM)
- solubility at 1 h (aqueous with cosolvent or surfactant or cyclodextrin, meglumine 5% (w/v), 2-hydroxypropyl-β-cyclodextrin 30% (w/v), read-out: Solubility): 49400 µg/mL (≈ 99.9 mM)
- solubility at 1 h (aqueous with cosolvent or surfactant or cyclodextrin, meglumine 5% (w/v), 2-hydroxypropyl-β-cyclodextrin 40% (w/v), read-out: Solubility): 51000 µg/mL (≈ 103 mM)
- solubility at 1 h (aqueous with cosolvent or surfactant or cyclodextrin, meglumine 5% (w/v), cyclodextrin 0% (w/v), read-out: Solubility): 13000 µg/mL (≈ 26.4 mM)
- solubility at 1 h (aqueous with cosolvent or surfactant or cyclodextrin, meglumine 5% (w/v), cyclodextrin from 5% (w/v) to 30% (w/v), read-out: water solubility of glibenclamide): 25200 to 49400 µg/mL (≈ 51.1 to 99.9 mM)
- solubility at 1 h (aqueous with cosolvent or surfactant or cyclodextrin, meglumine 5% (w/v), cyclodextrin from 30% (w/v) to 40% (w/v), read-out: solubility of glibenclamide): ~49400 µg/mL (≈ 99.9 mM)
- solubility at 1 h (aqueous with cosolvent or surfactant or cyclodextrin, meglumine 10% (w/v), cyclodextrin 0% (w/v), read-out: Solubility): 19000 µg/mL (≈ 38.6 mM)
- solubility at 1 h (aqueous with cosolvent or surfactant or cyclodextrin, meglumine only, from 0.1% (w/v) to 10% (w/v), read-out: water solubility of glibenclamide): 960 to 19000 µg/mL (≈ 1.94 to 38.6 mM)
- solubility at 1 h (aqueous with cosolvent or surfactant or cyclodextrin, sodium carbonate 0.1% (w/v), 2-hydroxypropyl-β-cyclodextrin 10% (w/v), read-out: Solubility): 6510 µg/mL (≈ 13.2 mM)
- solubility at 1 h (aqueous with cosolvent or surfactant or cyclodextrin, sodium carbonate 0.1% (w/v), 2-hydroxypropyl-β-cyclodextrin 20% (w/v), read-out: Solubility): 10600 µg/mL (≈ 21.5 mM)
- solubility at 1 h (aqueous with cosolvent or surfactant or cyclodextrin, sodium carbonate 0.1% (w/v), 2-hydroxypropyl-β-cyclodextrin 30% (w/v), read-out: Solubility): 10800 µg/mL (≈ 21.8 mM)
- solubility at 1 h (aqueous with cosolvent or surfactant or cyclodextrin, sodium carbonate 0.1% (w/v), 2-hydroxypropyl-β-cyclodextrin 40% (w/v), read-out: Solubility): 10900 µg/mL (≈ 22.1 mM)
- solubility at 1 h (aqueous with cosolvent or surfactant or cyclodextrin, sodium carbonate 0.1% (w/v), cyclodextrin from 5% (w/v) to 20% (w/v), read-out: water solubility of glibenclamide): 2350 to 10600 µg/mL (≈ 4.76 to 21.5 mM)
- solubility at 1 h (aqueous with cosolvent or surfactant or cyclodextrin, sodium carbonate 0.1% (w/v), cyclodextrin from 20% (w/v) to 40% (w/v), read-out: solubility of glibenclamide): ~10600 µg/mL (≈ 21.5 mM)
- solubility at 1 h (aqueous with cosolvent or surfactant or cyclodextrin, sodium hydrogen carbonate 4% (w/v), 2-hydroxypropyl-β-cyclodextrin 0.5% (w/v), read-out: Solubility): 320 µg/mL (≈ 0.648 mM)
- solubility at 1 h (aqueous with cosolvent or surfactant or cyclodextrin, sodium hydrogen carbonate 4% (w/v), 2-hydroxypropyl-β-cyclodextrin 1.25% (w/v), read-out: Solubility): 590 µg/mL (≈ 1.19 mM)
- solubility at 1 h (aqueous with cosolvent or surfactant or cyclodextrin, sodium hydrogen carbonate 4% (w/v), 2-hydroxypropyl-β-cyclodextrin 5% (w/v), read-out: Solubility): 1260 µg/mL (≈ 2.55 mM)
- solubility at 1 h (aqueous with cosolvent or surfactant or cyclodextrin, sodium hydrogen carbonate 4% (w/v), 2-hydroxypropyl-β-cyclodextrin 10% (w/v), read-out: Solubility): 1690 µg/mL (≈ 3.42 mM)
- solubility at 1 h (aqueous with cosolvent or surfactant or cyclodextrin, sodium hydrogen carbonate 4% (w/v), 2-hydroxypropyl-β-cyclodextrin 20% (w/v), read-out: Solubility): 1730 µg/mL (≈ 3.5 mM)
- solubility at 1 h (aqueous with cosolvent or surfactant or cyclodextrin, sodium hydrogen carbonate 4% (w/v), 2-hydroxypropyl-β-cyclodextrin 30% (w/v), read-out: Solubility): 1780 µg/mL (≈ 3.6 mM)
- solubility at 1 h (aqueous with cosolvent or surfactant or cyclodextrin, sodium hydrogen carbonate 4% (w/v), 2-hydroxypropyl-β-cyclodextrin 40% (w/v), read-out: Solubility): 1750 µg/mL (≈ 3.54 mM)
- solubility at 1 h (aqueous with cosolvent or surfactant or cyclodextrin, sodium hydrogen carbonate 4% (w/v), cyclodextrin from 0.5% (w/v) to 10% (w/v), read-out: water solubility of glibenclamide): 320 to 1690 µg/mL (≈ 0.648 to 3.42 mM)
- solubility at 1 h (aqueous with cosolvent or surfactant or cyclodextrin, sodium hydrogen carbonate 4% (w/v), cyclodextrin from 10% (w/v) to 40% (w/v), read-out: solubility of glibenclamide): ~1690 µg/mL (≈ 3.42 mM)
- solubility at 1 h (aqueous with cosolvent or surfactant or cyclodextrin, sodium hydroxide 0.01% (w/v), 2-hydroxypropyl-β-cyclodextrin 1.25% (w/v), read-out: Solubility): 370 µg/mL (≈ 0.749 mM)
- solubility at 1 h (aqueous with cosolvent or surfactant or cyclodextrin, sodium hydroxide 0.01% (w/v), 2-hydroxypropyl-β-cyclodextrin 2.5% (w/v), read-out: Solubility): 640 µg/mL (≈ 1.3 mM)
- solubility at 1 h (aqueous with cosolvent or surfactant or cyclodextrin, sodium hydroxide 0.01% (w/v), 2-hydroxypropyl-β-cyclodextrin 5% (w/v), read-out: Solubility): 810 µg/mL (≈ 1.64 mM)
- solubility at 1 h (aqueous with cosolvent or surfactant or cyclodextrin, sodium hydroxide 0.01% (w/v), 2-hydroxypropyl-β-cyclodextrin 10% (w/v), read-out: Solubility): 1260 µg/mL (≈ 2.55 mM)
- solubility at 1 h (aqueous with cosolvent or surfactant or cyclodextrin, sodium hydroxide 0.01% (w/v), 2-hydroxypropyl-β-cyclodextrin 30% (w/v), read-out: Solubility): 1240 µg/mL (≈ 2.51 mM)
- solubility at 1 h (aqueous with cosolvent or surfactant or cyclodextrin, sodium hydroxide 0.01% (w/v), 2-hydroxypropyl-β-cyclodextrin 40% (w/v), read-out: Solubility): 1350 µg/mL (≈ 2.73 mM)
- solubility at 1 h (aqueous with cosolvent or surfactant or cyclodextrin, sodium hydroxide 0.01% (w/v), cyclodextrin from 0.5% (w/v) to 10% (w/v), read-out: water solubility of glibenclamide): 140 to 1260 µg/mL (≈ 0.283 to 2.55 mM)
- solubility at 1 h (aqueous with cosolvent or surfactant or cyclodextrin, sodium hydroxide 0.01% (w/v), cyclodextrin from 10% (w/v) to 40% (w/v), read-out: solubility of glibenclamide): ~1260 µg/mL (≈ 2.55 mM)
- Solubility (meglumine 0% (w/v), 2-hydroxypropyl-β-cyclodextrin 30% (w/v)): 0.086 mg/mL (≈ 0.174 mM)
- Solubility (meglumine 0% (w/v), 2-hydroxypropyl-β-cyclodextrin 40% (w/v)): 0.12 mg/mL (≈ 0.243 mM)
- Solubility (sodium hydrogen carbonate 4% (w/v), 2-hydroxypropyl-β-cyclodextrin 2.5% (w/v)): 0.84 mg/mL (≈ 1.7 mM)
- Solubility (sodium hydroxide 0.01% (w/v), 2-hydroxypropyl-β-cyclodextrin 20% (w/v)): 1.30 mg/mL (≈ 2.63 mM)
